From ChEMBL document CHEMBL5441445, “ASAP - In vitro CYP inhibition pooled” (2024)

Key:
Type in all cases: ADME
Cytochrome P450 3A4 = Cytochrome P450 3A4 (Homo sapiens, UniProt P08684); assay: (§1) The compounds are incubated at 0, 0.15, 0.5, 1.5, 5, 15 and 50 uM concentration at 37 C, CYP3A4 is pooled in a ratio such that biotransformation of each probe substrate is specific for the CYP450. Substrates (at their Km) are also pooled within the same solution to create an enzyme-substrate stock and test compound is added. The final solvent concentration is 1% DMSO. After equilibration to 37 C, addition of NADPH initiates substrate biotransformation. The incubation is stopped at 10 min by methanol containing internal standard. The quenched samples are centrifuged to precipitate the protein and the supernatants are analyzed by LC-MS/MS to measure metabolite formation. IC50 of test compounds against CYP3A4 is calculated. The assay has been performed by Concept Life Sciences Ltd.
Cytochrome P450 1A2 = molecular target: T1, Cytochrome P450 1A2 (Homo sapiens, UniProt P05177); assay: as §1, with “CYP1A2” for “CYP3A4”
T1 sequence (P05177 whole entry): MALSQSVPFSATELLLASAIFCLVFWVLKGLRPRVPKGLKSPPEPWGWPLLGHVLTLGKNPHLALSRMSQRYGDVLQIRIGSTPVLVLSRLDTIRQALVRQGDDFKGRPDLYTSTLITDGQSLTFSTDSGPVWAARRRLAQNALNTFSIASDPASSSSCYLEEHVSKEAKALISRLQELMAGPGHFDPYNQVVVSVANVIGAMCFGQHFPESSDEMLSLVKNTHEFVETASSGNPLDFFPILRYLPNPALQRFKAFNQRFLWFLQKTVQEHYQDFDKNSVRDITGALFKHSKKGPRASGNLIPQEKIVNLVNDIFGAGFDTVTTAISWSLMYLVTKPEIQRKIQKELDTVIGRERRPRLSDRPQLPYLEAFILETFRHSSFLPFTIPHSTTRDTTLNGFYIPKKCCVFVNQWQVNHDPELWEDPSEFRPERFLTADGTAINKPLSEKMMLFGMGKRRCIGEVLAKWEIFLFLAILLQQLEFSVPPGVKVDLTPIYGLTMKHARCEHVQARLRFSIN

Cytochrome P450 2C9 = Cytochrome P450 2C9 (Homo sapiens, UniProt P11712); assay: as §1, with “CYP2C9” for “CYP3A4”
Cytochrome P450 2D6 = Cytochrome P450 2D6 (Homo sapiens, UniProt P10635); assay: as §1, with “CYP2D6” for “CYP3A4”
Cytochrome P450 2C19 = Cytochrome P450 2C19 (Homo sapiens, UniProt P33261); assay: as §1, with “CYP2C19” for “CYP3A4”
Chain of Cytochrome P450 2C19 (P33261 whole entry): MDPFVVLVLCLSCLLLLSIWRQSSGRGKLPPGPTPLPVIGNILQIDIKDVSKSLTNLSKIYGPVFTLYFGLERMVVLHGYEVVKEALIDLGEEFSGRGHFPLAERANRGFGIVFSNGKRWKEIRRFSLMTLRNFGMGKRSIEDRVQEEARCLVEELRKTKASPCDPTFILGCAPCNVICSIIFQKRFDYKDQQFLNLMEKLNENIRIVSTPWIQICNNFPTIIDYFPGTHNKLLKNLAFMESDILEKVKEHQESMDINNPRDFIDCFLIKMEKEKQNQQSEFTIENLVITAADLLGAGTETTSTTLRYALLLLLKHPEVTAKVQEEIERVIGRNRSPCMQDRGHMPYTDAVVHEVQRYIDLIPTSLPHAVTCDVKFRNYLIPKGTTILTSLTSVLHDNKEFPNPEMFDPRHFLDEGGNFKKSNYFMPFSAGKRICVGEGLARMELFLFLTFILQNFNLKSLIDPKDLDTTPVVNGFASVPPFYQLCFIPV

Chain of Cytochrome P450 2D6 (P10635 whole entry): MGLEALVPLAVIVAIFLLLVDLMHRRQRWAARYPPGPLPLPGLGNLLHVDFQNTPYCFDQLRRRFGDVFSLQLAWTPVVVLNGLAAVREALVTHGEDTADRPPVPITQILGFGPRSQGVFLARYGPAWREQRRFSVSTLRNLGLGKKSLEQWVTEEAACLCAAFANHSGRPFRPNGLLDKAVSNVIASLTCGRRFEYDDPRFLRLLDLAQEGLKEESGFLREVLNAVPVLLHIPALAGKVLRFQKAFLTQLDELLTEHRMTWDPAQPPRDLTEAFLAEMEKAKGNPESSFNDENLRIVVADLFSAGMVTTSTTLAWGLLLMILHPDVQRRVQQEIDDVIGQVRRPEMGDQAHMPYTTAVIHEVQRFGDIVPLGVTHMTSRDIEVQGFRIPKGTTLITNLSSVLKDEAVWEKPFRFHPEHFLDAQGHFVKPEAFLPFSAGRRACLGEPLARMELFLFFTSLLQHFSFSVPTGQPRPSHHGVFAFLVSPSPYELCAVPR
Chain of Cytochrome P450 3A4 (P08684 whole entry): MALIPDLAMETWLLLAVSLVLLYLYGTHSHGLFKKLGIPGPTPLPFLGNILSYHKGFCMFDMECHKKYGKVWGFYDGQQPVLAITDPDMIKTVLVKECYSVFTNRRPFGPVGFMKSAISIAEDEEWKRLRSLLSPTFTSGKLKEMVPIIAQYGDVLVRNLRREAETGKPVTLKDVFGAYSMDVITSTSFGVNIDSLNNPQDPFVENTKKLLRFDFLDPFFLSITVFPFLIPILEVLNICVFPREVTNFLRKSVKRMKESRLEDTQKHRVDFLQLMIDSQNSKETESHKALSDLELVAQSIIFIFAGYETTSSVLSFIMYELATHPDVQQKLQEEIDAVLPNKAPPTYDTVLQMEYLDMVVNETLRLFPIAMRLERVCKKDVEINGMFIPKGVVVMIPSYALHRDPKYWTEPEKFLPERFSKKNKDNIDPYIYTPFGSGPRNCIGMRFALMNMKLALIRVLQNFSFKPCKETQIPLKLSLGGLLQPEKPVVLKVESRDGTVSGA
Chain of Cytochrome P450 2C9 (P11712 whole entry): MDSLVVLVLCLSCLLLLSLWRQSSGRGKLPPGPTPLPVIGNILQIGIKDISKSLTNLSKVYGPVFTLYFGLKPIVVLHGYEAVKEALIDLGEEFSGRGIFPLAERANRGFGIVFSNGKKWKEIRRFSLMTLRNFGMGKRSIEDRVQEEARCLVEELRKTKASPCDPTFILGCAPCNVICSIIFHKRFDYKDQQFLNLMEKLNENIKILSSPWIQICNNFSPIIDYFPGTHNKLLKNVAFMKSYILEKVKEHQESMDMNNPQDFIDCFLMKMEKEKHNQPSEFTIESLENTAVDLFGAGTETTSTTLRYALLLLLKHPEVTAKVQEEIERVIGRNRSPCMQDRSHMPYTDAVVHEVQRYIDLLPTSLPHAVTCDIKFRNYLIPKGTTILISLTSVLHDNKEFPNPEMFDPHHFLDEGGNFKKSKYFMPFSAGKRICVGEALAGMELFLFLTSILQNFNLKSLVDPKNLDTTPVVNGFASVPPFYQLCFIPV

SMILES	IC50 (Cytochrome P450 3A4)	IC50 (Cytochrome P450 1A2)	IC50 (Cytochrome P450 2C9)	IC50 (Cytochrome P450 2D6)	IC50 (Cytochrome P450 2C19)
Cn1ncc(-c2cc3c(N[C@@H](c4ccc5c(n4)OCCO5)C(C)(C)C)ncnc3[nH]2)c1C#N	8.79 µM	> 50 µM	42.6 µM	20.5 µM	> 50 µM
CC(C)[C@@H](Nc1ncnc2[nH]c(C(=O)N[C@@H]3CCN(C)C3)cc12)c1ccc2c(c1)S(=O)(=O)CCC2	> 50 µM	> 50 µM	> 50 µM	> 50 µM	> 50 µM
COc1ccc([C@H](Cc2nnn[nH]2)NC(=O)c2ncnc3[nH]ccc23)cc1	25.4 µM	> 50 µM	31.2 µM	> 50 µM	> 50 µM
CNCc1cc(-c2cc3c(N[C@@H](c4ccc5c(c4)S(=O)(=O)CCC5)C(C)C)ncnc3[nH]2)co1	1.81 µM	49.3 µM	5.25 µM	9.03 µM	22.6 µM
C[C@H](C(=O)O)[C@@H](NC(=O)c1ncnc2[nH]ccc12)c1ccc(Br)cc1	> 50 µM	> 50 µM	5.14 µM	> 50 µM	> 50 µM
CNC(=O)Cn1cc(-c2cc3c(N[C@@H](c4ccc5c(c4)S(=O)(=O)CCC5)C(C)C)ncnc3[nH]2)cn1	3.1 µM	44.1 µM	29 µM	48.2 µM	34.7 µM
CC(C)[C@@H](Nc1ncnc2[nH]c(-c3cnn(C)c3C#N)cc12)c1ccc2c(n1)OCCO2	2.07 µM	8.86 µM	4.34 µM	22.7 µM	9.51 µM
CC(C)[C@H](Nc1ncnc2[nH]c(-c3cnn(C)c3C#N)cc12)c1ccc2c(n1)OCCO2	3.69 µM	35.2 µM	5.93 µM	27.7 µM	16.9 µM
CC(C)[C@H](Nc1ncnc2[nH]ccc12)c1ccc2c(c1)S(=O)(=O)CCC2	3.2 µM	> 50 µM	18.2 µM	> 50 µM	15 µM
